# Experimental data taken from patent publication US20260158172A1, “CELL DEATH METHOD USING CRISPR/CAS SYSTEM HAVING SINGLE-STRAND BREAK ACTIVITY AND PARP INHIBITOR” (INSTITUTE FOR BASIC SCIENCE, priority 2023, published 2026).
# Tests used:
# Assay type in all cases: cell-based
# HCT-116 cells [1] = experiment: Cell viability (CellTiter-Glo), Experimental Example 2: CRISPR/nCas composition for cell death with or without olaparib; settings: relative cell viability, HCT-116, Olaparib (+): olaparib 1 μM, sgRNA delivered as nCas9 D10A RNP, Mock = no guide RNA
# Procedure: (§1) A total of 0.5×10^4 cells were mixed with 1 μM olaparib (AZD2281) (Selleckchem, #S1060), 1 μM rucaparib (Selleckchem, #S4948), 0.1 μM niraparib (MK-4827) (Selleckchem, #S2741), 2 μM veliparib (ABT-888) (Selleckchem, #S1004), or 10 µM iniparib (BSI-201) (Selleckchem, #S1087), and seeded onto 24-well plates.
# (§2) To transfect RNPs, cells were transfected with 665 ng of the Cas protein of each Embodiment and 95 ng of the sgRNA of each Embodiment using a Lipofectamine CRISPRMAX Cas9 Transfection Reagent (Invitrogen, #CMAX00015), and then cultured for 3 days. When treated together with a PARP inhibitor, the PARP inhibitor was treated according to Experimental Example 1.6, and the RNPs were treated one day thereafter.
# (§3) Cell viability was measured using a CellTiter-Glo Luminescent Cell Viability Assay (Promega, #G7571). After the transfected cells were cultured for 3 days, the cells were detached using Trypsin-EDTA (0.25%) (Gibco, #25200056). The cells were diluted in 400 μL of DMEM, followed by dispensing 100 μL of the cells, mixed with 100 μL of the CellTiter-Glo Reagent, and then incubated at room temperature for 10 minutes. Luminescence signals were measured using an Infinite 200 (Tecan) in a white opaque 96-well plate (Corning, #3917).
# (§4) To evaluate the cell death effects of a CRISPR/nCas composition for cell death and a PARP inhibitor, the following experiment was conducted. Specifically, Hela cells and HCT-116 cells cultured according to Experimental Example 1.1 were treated with a PARP inhibitor (olaparib) and a CRISPR/nCas composition for cell death having the compositions shown in the following table.
# (§5) The nCas protein used in this experiment was prepared according to Experimental Example 1.2, and the sgRNA used was prepared according to Experimental Example 1.3. The nCas protein and the sgRNA were administered to the cells in the form of RNPs according to Experimental Example 1.7. In the case of the PARP inhibitor, the concentrations disclosed in the above table were applied to each cell according to Experimental Example 1.6.
# (§6) Thereafter, cell viability was measured according to Experimental Example 1.8.
# HeLa cells [2] = experiment: as above; settings: relative cell viability, sgRNA delivered as nCas9 D10A RNP, Mock = no guide RNA
# Procedure: as §1, §2, §3, §4, §5, §6
# HCT-116 cells [3] = experiment: Cell viability (CellTiter-Glo), Experimental Example 5: type of PARP inhibitor; settings: olaparib 1 μM, rucaparib 1 μM, niraparib 0.1 μM, veliparib 2 μM
# Procedure: as §1, §2, §3
# (§7) Specifically, Hela cells and HCT-116 cells cultured according to Experimental Example 1.1 were treated with a PARP inhibitor and a CRISPR/nCas composition for cell death having the compositions shown in the following table.
# (§8) For each RNP composition of the embodiment using nCas9^D10A, one PARP inhibitor selected from olaparib, rucaparib, niraparib, veliparib, and iniparib was co-administered. DMSO was used as a control.
# (§9) The Cas protein and the nCas protein used in this experiment were prepared according to Experimental Example 1.2, and the sgRNA used was prepared according to Experimental Example 1.3. The nCas protein and the sgRNA were administered to the cells in the form of RNPs according to Experimental Example 1.7. The cells were each treated with the respective PARP inhibitors at the concentrations disclosed in Experimental Example 1.6 using the materials disclosed in the above table.
# as §6
# HeLa cells [4] = experiment: as above; settings: olaparib 1 μM, rucaparib 1 μM, niraparib 0.1 μM, veliparib 2 μM
# Procedure: as §1, §2, §3, §7, §8, §9, §6
# [5] = PARP inhibitor with nCas9^D10A, Target = Mock (PBS instead of sgRNA)
# [6] = drug_only (no Cas protein, no guide RNA)
structure (smiles),measurement,setting,value
"O=C(c1cc(Cc2n[nH]c(=O)c3ccccc23)ccc1F)N1CCN(C(=O)C2CC2)CC1 [Olaparib, olaparib]",Average,HCT-116 cells [1]; average of Rep 1-3,1.05
same,Rep 1 (rel),HCT-116 cells [1],0.9889
same,Rep 2 (rel),HCT-116 cells [1],1.027
same,Rep 3 (rel),HCT-116 cells [1],1.131
same,Rep 1 (rel),HeLa cells [2]; Olaparib (+): olaparib 1 μM,1.163
same,Rep 2 (rel),HeLa cells [2]; Olaparib (+): olaparib 1 μM,0.967
same,Rep 3 (rel),HeLa cells [2]; Olaparib (+): olaparib 1 μM,1.02
same,Average,"HeLa cells [2]; average of Rep 1-3, Olaparib (+): olaparib 1 μM",1.05
same,"Relative cell viability (average, n = 3)",HCT-116 cells [3]; [5],1.0164
same,"Relative cell viability (average, n = 3)",HCT-116 cells [3]; [6],1.1219
same,"Relative cell viability (average, n = 3)",HeLa cells [4]; [5],0.9135
same,"Relative cell viability (average, n = 3)",HeLa cells [4]; [6],0.8856
